From ChEMBL document CHEMBL1132666, “Significant compensatory role of position Y-2 conferring high affinity to non-phosphorylated inhibitors of Grb2-SH2 domain” (Bioorg Med Chem Lett, 1999)

The molecules below were run against Growth factor receptor-bound protein 2 (Homo sapiens, UniProt P62993) (assay: Inhibitory activity against Growth factor receptor bound protein 2).

SMILES	IC50
CSCC[C@H]1NC(=O)CNC(=O)[C@@H](C(C)C)NC(=O)[C@@H](CC(N)=O)NC(=O)[C@@H](CCC(=O)O)NC(=O)[C@@H](Cc2ccc(O)cc2)NC(=O)[C@@H](CC(C)C)NC(=O)[C@@H](CCC(=O)O)NC(=O)CSC[C@H](C(N)=O)NC(=O)[C@@H](Cc2ccc(O)cc2)NC1=O	20 µM
CSCC[C@H]1NC(=O)CNC(=O)[C@@H](C(C)C)NC(=O)[C@@H](CC(N)=O)NC(=O)[C@@H](CCC(=O)O)NC(=O)[C@@H](Cc2ccc(O)cc2)NC(=O)[C@@H](CC(C)C)NC(=O)[C@@H](C)NC(=O)CSC[C@H](C(N)=O)NC(=O)[C@@H](Cc2ccc(O)cc2)NC1=O	100 µM
CSCC[C@H]1NC(=O)CNC(=O)[C@@H](C(C)C)NC(=O)[C@@H](CC(N)=O)NC(=O)[C@@H](CCC(=O)O)NC(=O)[C@@H](Cc2ccc(O)cc2)NC(=O)[C@@H](CC(C)C)NC(=O)[C@@H](Cc2ccc(OP(=O)(O)O)cc2)NC(=O)CSC[C@H](C(N)=O)NC(=O)[C@@H](Cc2ccc(O)cc2)NC1=O	27.5 µM
CSCC[C@H]1NC(=O)CNC(=O)[C@@H](C(C)C)NC(=O)[C@@H](CC(N)=O)NC(=O)[C@@H](CCC(=O)O)NC(=O)[C@@H](Cc2ccc(O)cc2)NC(=O)[C@@H](CC(C)C)NC(=O)[C@@H](Cc2ccc(OC(C(=O)O)C(=O)O)cc2)NC(=O)CSC[C@H](C(N)=O)NC(=O)[C@@H](Cc2ccc(O)cc2)NC1=O	64.5 µM

Molecules with a lower IC50, results first:

IC50	SMILES
0.023 µM	CSCC[C@H]1NC(=O)CNC(=O)[C@@H](C(C)C)NC(=O)[C@@H](CC(N)=O)NC(=O)[C@@H](CCC(=O)O)NC(=O)[C@@H](Cc2ccc(O)cc2)NC(=O)[C@@H](CC(C)C)NC(=O)[C@@H](C)NC(=O)CSC[C@H](C(N)=O)NC(=O)[C@@H](Cc2ccc(OP(=O)(O)O)cc2)NC1=O
0.13 µM	CSCC[C@H]1NC(=O)CNC(=O)[C@@H](C(C)C)NC(=O)[C@@H](CC(N)=O)NC(=O)[C@@H](CCC(=O)O)NC(=O)[C@@H](Cc2ccc(O)cc2)NC(=O)[C@@H](CC(C)C)NC(=O)[C@@H](CCC(=O)O)NC(=O)CSC[C@H](C(N)=O)NC(=O)[C@@H](Cc2ccc(OP(=O)(O)O)cc2)NC1=O
0.64 µM	CSCC[C@H]1NC(=O)CNC(=O)[C@@H](C(C)C)NC(=O)[C@@H](CC(N)=O)NC(=O)[C@@H](CCC(=O)O)NC(=O)[C@@H](Cc2ccc(O)cc2)NC(=O)[C@@H](CC(C)C)NC(=O)[C@@H](CC(C(=O)O)C(=O)O)NC(=O)CSC[C@H](C(N)=O)NC(=O)[C@@H](Cc2ccc(O)cc2)NC1=O
3.45 µM	CSCC[C@H]1NC(=O)CNC(=O)[C@@H](C(C)C)NC(=O)[C@@H](CC(N)=O)NC(=O)[C@@H](CCC(=O)O)NC(=O)[C@@H](Cc2ccc(O)cc2)NC(=O)[C@@H](CC(C)C)NC(=O)[C@@H](CCCC(=O)O)NC(=O)CSC[C@H](C(N)=O)NC(=O)[C@@H](Cc2ccc(O)cc2)NC1=O
